According to patent US10183039B2, “Methods for the production of collagen IV” (Vanderbilt University, priority 2013, dated 2019):
Like-named read-outs stand apart in the source and are kept apart here.

Key:
collagen IV = settings: in vivo
Protocol: Data plotted as the group median±interquartile range. N=30 for each group. […] (FIG. 17F) Western blot of isolated NC1 domain from larvae treated as in (E), probed with an anti-Drosophila NC1 polyclonal antibody (Extended Experimental Methods). Associated larval Br-content was measured by EINAA. Bonds/hexamer were calculated from the Western blot.
In Br-free^DEP conditions, the inventors assessed the impact of Br-deficiency on crosslink formation in vivo. The inventors used vkg^454-GFP flies in which the single collagen IV α2 gene locus contains a GFP insertion near the 7S domain. vkg^454-GFP flies were grown on Br-free^DEP, Br-added^DEP and standard diets and biochemically assayed sulfilamine-bond content via immunoblot.

[1] = cited from earlier work
human peroxidasin = human peroxidasin (Homo sapiens, UniProt Q92626); assay: biochemical
Chain of human peroxidasin (Q92626 27-1479): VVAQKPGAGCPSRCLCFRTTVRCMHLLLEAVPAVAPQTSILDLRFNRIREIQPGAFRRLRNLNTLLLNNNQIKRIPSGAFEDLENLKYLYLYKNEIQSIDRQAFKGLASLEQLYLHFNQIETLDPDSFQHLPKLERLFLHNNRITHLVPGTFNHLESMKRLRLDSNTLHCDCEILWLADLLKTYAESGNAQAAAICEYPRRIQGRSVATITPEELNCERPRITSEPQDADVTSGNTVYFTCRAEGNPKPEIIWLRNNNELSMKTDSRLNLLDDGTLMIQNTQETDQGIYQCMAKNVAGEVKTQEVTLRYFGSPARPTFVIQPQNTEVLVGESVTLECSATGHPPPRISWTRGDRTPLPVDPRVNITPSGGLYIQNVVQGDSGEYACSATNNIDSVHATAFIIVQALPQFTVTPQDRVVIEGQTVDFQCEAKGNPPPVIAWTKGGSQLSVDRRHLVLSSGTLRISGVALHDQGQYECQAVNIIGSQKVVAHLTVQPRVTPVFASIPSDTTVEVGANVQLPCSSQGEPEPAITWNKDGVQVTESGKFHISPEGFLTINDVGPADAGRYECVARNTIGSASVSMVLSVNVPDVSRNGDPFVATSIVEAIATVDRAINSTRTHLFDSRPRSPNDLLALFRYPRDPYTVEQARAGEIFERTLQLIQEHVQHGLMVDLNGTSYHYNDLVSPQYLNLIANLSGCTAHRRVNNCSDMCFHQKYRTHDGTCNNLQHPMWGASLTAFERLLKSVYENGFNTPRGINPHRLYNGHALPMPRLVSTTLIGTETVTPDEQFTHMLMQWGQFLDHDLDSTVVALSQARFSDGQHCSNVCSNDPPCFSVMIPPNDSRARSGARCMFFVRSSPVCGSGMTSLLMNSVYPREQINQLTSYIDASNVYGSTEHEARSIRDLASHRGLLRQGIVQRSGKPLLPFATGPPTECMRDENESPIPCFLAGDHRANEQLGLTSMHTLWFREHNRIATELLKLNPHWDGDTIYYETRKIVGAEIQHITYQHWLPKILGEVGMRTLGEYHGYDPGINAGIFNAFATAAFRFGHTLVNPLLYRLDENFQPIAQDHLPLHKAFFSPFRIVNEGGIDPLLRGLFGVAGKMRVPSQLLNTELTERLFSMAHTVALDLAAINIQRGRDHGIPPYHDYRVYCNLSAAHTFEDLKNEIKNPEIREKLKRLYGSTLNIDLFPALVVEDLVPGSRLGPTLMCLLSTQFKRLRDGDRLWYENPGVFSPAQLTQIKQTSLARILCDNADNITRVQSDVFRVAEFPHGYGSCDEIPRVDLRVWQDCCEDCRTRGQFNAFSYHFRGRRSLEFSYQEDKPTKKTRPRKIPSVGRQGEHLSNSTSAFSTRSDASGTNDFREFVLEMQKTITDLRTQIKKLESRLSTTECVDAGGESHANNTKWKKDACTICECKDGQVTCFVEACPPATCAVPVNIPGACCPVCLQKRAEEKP
Protocol: (FIG. 8A) Matrix pellets isolated from KI-treated PFHR9 cell culture were extensively washed into 10 mM phosphate buffer (pH 7.4) supplemented with 100 mM KF to maintain ionic strength. Potassium salts of Cl— or Br— were added in indicated amounts. 1 hr reactions at 37° C. were initiated by addition of H2O2 to 1 mM and stopped by freezing at −20° C. […] Reagent KCl was commercially obtained and unaltered prior to analysis. 100 mM solutions were made with 18MΩ deionized water. (FIG. 8C) Coomassie blue stained gel of collagenase digested PFHR-9 matrix reaction assay. Reaction buffered contained 10 mM phosphate buffer (pH 7.4), 100 mM Br-Free or Commercially obtained reagent grade KCl, as well as 1 mM H2O2 and 200 μM PHG where appropriate. […] Reactions were run for 10 minutes at 37° C. with 10 μM H2O2 as the terminal oxidant. Dose-response curve run in the presence of 1× Br-Free PBS. Reactions were quenched with 0.2 mg/ml Catalase, 20 mM Methionine, and 1 mM PHG. EC50 value±95% C.I. from two independent experiments with each data point plotted and fit.
HEK293 cells stably transfected with the human peroxidasin coding sequence27 were grown to confluency, and the medium was changed to serum-free DMEM/F12 plus 5 μM hematin plus 5 mM sodium butyrate. […]

Br [bromide]
sulfilimine-bond content in larvae (collagen IV): rescued
bromide level at which Bromism occurs ([1]; in vivo): > 12 mmol/L
half-life in the human body ([1]; in vivo): 12 days
serum bromide level at which toxicity (bromism) occurs [1]: ~12 mM
serum bromide level at which toxicity (bromism) occurs ([1]; listed as Br^−): > 12 mM
EC50 (human peroxidasin): 2.7 µM
